From patent US20150164884A1, “HCV COMBINATION THERAPY” (Boehringer Ingelheim International GmbH, priority 2009, published 2015)
≈ marks a conversion by molar mass, not a printed value. Counter-ions that a name gives are not always drawn. Like-named read-outs stand apart in the source and are kept apart here.

Tests used:
[1] = Form change (stability) study of slurried solids by XRPD; format: physicochemical; conditions: slurried in either ethanol or propylene glycol
Procedure: (§1) The solubility of Compound (1), as either Type A or the sodium salt form, was investigated in various non-aqueous solvents. The solutions were prepared by addition of excess Compound (1) to 0.25 ml to 1.0 ml of excipient in amber screw cap vials with Teflon lined caps. The samples were allowed to rotate at room temperature for up to 4 days. Sampling was done by centrifuging (14,000 rpm on the Eppendorf model 5415C table top centrifuge) and filtering through a 0.45 μm PVDF filter. The filtrate was subject to HPLC analysis for determining the solubility. HPLC analysis was conducted with an to Agilent 1100 using gradient or isocratic conditions. Both methods used acetonitrile/water (each with 0.1% Triflouroacetic Acid) and an ACE C-18 stationary phase with column heating maintained at 40-45° C. The wavelength of detection was set at 220 nm or 264 nm Wet solids were collected and analyzed for form change (stability) by XRPD.
XRPD analyses for the form change studies were conducted on a Bruker AXS X-Ray Powder Diffractometer Model D8 Discover or D8 Advance, available from Bruker AXS, Inc. of Madison, Wis., using CuKα radiation. The tube power was set to either 40 kV and 40 mA or 40 kV and 30 mA. […]

[2] = Solubility of Compound (1) forms in non-aqueous excipients (HPLC of filtrate); format: physicochemical; conditions: room temperature, up to 4 days
Procedure: as §1

Compound	Form stability (change in XRPD pattern of remaining solid phase) ([1]; listed as crystalline sodium salt form of Compound (1))	Solubility ([2]; Capmul MCM (non-aqueous excipient), oil or lipid, thermodynamic from solid, excipient Capmul MCM, read-out: Solubility) [mg/mL]	Solubility ([2]; Capmul PG8 (non-aqueous excipient), oil or lipid, thermodynamic from solid, excipient Capmul PG8, read-out: Solubility) [mg/mL]	Solubility ([2]; Labrasol (non-aqueous excipient), oil or lipid, thermodynamic from solid, excipient Labrasol, read-out: Solubility) [mg/mL]	Solubility ([2]; PEG 400 (non-aqueous excipient), organic solvent or mixture, thermodynamic from solid, excipient PEG 400, read-out: Solubility) [mg/mL]	Solubility ([2]; excipient Ethanol) [mg/mL]	Solubility ([2]; excipient Transcutol P) [mg/mL]	Solubility ([2]; propylene glycol (non-aqueous excipient), organic solvent or mixture, thermodynamic from solid, excipient Propylene Glycol, read-out: Solubility) [mg/mL]	Form stability (change in XRPD pattern of remaining solid phase) ([1]; listed as Type A form of Compound (1))	Solubility ([2]; excipient Capmul MCM) [mg/mL]	Solubility ([2]; excipient Capmul PG8) [mg/mL]	Solubility ([2]; excipient Labrasol) [mg/mL]	Solubility ([2]; excipient PEG 400) [mg/mL]
C=C[C@@H]1C[C@]1(NC(=O)[C@@H]1C[C@H](Oc2cc(-c3csc(NC(=O)C(C)C)n3)nc3c(Br)c(OC)ccc23)CN1C(=O)[C@@H](NC(=O)OC1CCCC1)C(C)(C)C)C(=O)O [Compound (1) Na salt]	no change in the XRPD pattern	262.5 ± 2.6	< 169	175 ± 11.8	234 ± 34	187.0 ± 23.9	430.6 ± 14.7	> 468	–	–	–	–	–
C=C[C@@H]1C[C@]1(NC(=O)[C@@H]1C[C@H](Oc2cc(-c3csc(NC(=O)C(C)C)n3)nc3c(Br)c(OC)ccc23)CN1C(=O)[C@@H](NC(=O)OC1CCCC1)C(C)(C)C)C(=O)O [Type A of Compound (1)]	–	–	–	–	–	0.9 ± 0.1 (≈ 1.03 mM)	24.3 ± 0.3 (≈ 27.9 mM)	–	clear form change	220.6 ± 7.4 (≈ 254 mM)	172.6 ± 8.3 (≈ 198 mM)	146.7 ± 5.1 (≈ 169 mM)	136.8 ± 3.2 (≈ 157 mM)
